Measured values taken from paper PMC11637378, “Optogenetic screening of MCT1 activity implicates a cluster of non-steroidal anti-inflammatory drugs (NSAIDs) as inhibitors of lactate transport” (PLOS ONE, 2024).
“And” between values parts separate entries of the source, which are not always exact repeats. Equal entries are not always repeated. Where two headings read alike, the source gives them in different places.

Assays:
[1] = target: MCT1 (wildtype) (UniProt P36035+P53987); assay: Growth with lactate as sole carbon source, by4741 Δjen1 expressing wild-type MCT1
Experimental: (§1) Yeast was propagated, transformed, and assayed in synthetic complete media. Synthetic media was composed of 1.5 g Difco yeast nitrogen base without amino acids and ammonium sulfate, 5 g ammonium sulfate, 200 μM inositol, and 2 g amino acid powder mix per liter. For all studies using MCT1, uracil was excluded to maintain plasmid selection. The carbon source for most experiments was 2% glucose; however, for growth in alternative carbon sources lactate (0.5% v/v) or pyruvate (40 mM) was used instead with media pH adjustment to 5.0.
(§2) For growth in lactate or pyruvate as a sole carbon source by4741 and an equivalent strain with a JEN1 knockout was obtained from the nonessential gene deletion library [62].
(§3) Supplementary file pone.0312492.s005.tif: S5 Fig Growth of the optimal MCT1 fusion in lactate and sensitivity to AZD3965 administration. […] AZD3965 was added to the media at a concentration of 10 μM.

[2] = test system: SAWy710 (EV); assay: High throughput assay validation, empty vector (EV) control strain SAWy710, AZD versus DMSO; type: cell-based, Saccharomyces cerevisiae; conditions: individual wells 1-16, listed as AZD
[3] = patients with advanced cancer; dose-limiting toxicity relating to retinopathy at higher concentrations; cited from earlier work
[4] = test system: MCT1; conditions: cited from earlier work
[5] = target: MCT1 (F360C) (UniProt P36035+P53987, F360C); assay: Growth with lactate as sole carbon source, by4741 Δjen1 expressing MCT1(F360C); conditions: for growth curve reading, single replicate / growth curve reading, mean of 4 replicates: Δjen1 MCT1(F360C)
Experimental: as §1, §2, §3

[6] = test system: Δjen1 EV; assay: Growth with lactate as sole carbon source, Δjen1 carrying empty vector (EV) control; type: cell-based, Saccharomyces cerevisiae
[7] = test system: parent strain (SAWy518)
[8] = target: neurokinin 1 (NK1) receptor; conditions: library annotation; cited from earlier work
[9] = target: neurokinin 1 (NK1) receptor; design: method as in not given; conditions: library annotation; ref not given; cited from earlier work
[10] = test system: parent strain (SAWy518); assay: microbe, parasite or virus in culture; design: species or system Saccharomyces cerevisiae SAWy518; Off-target growth counter-screen, OD600 as per cent of untreated wells, strain lacking MCT1; conditions: 18.5 h; sheet Primary Screen - final;; off-target growth of parent strain, about 18 h
[11] = target: neurokinin 1 (NK1) receptor; conditions: library annotation; cited from earlier work; remark: listed apart in the source
[12] = test system: cancer cell growth; conditions: 10 μM, administered alone; cited from earlier work
[13] = test system: MCT4; conditions: HAP1 cells; NOTES column annotation; cited from earlier work
[14] = test system: tumor growth; conditions: cited from earlier work
[15] = test system: MCT4; conditions: HAP1 cells, library annotation; cited from earlier work
[16] = test system: survivin; conditions: library annotation; cited from earlier work
[17] = test system: survivin; conditions: library annotation; cited from earlier work; remark: listed apart in the source
[18] = test system: survivin; conditions: NOTES column annotation; cited from earlier work

Sequence of MCT1 (wildtype) (P36035+P53987 fused): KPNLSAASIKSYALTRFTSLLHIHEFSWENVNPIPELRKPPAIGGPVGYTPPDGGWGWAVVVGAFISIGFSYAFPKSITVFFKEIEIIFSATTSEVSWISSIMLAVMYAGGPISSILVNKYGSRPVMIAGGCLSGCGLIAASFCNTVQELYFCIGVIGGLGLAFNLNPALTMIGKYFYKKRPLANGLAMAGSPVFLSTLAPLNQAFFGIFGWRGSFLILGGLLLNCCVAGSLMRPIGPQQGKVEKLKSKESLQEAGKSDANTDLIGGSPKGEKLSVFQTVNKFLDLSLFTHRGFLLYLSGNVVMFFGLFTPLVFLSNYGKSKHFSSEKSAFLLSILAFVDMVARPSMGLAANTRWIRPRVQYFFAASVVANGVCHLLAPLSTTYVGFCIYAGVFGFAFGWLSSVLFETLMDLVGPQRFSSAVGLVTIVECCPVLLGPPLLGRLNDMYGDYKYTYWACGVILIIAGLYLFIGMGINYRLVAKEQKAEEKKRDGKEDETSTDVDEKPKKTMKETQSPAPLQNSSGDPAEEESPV
Sequence of MCT1 (F360C) (P36035+P53987 fused P53987:F360C): as the sequence (P36035+P53987 fused) above, with F398C counted along it

What does the source list for Cc1[nH]nc(C(F)(F)F)c1Cc1sc2c(c1C(=O)N1C[C@](C)(O)CO1)c(=O)n(C)c(=O)n2C(C)C [AZD3965]?
growth in media with lactate as the sole carbon source ([1]; wildtype MCT1, AZD3965 10 μM, 0.5% lactate (S5 Fig)): inhibited growth; growth curve reading, single replicate ([1]; Δjen1 MCT1, T0, time 0): 0.0402; growth curve reading, single replicate ([1]; Δjen1 MCT1, T1, time 19): 0.1316 and 0.1252 and 0.1281 and 0.1266; growth curve reading, single replicate ([1]; Δjen1 MCT1, T2, time 21): 0.1442 and 0.1394 and 0.1417 and 0.1396; growth curve reading, single replicate ([1]; Δjen1 MCT1, T3, time 25): 0.1656 and 0.1622 and 0.1633 and 0.1608; growth curve reading, single replicate ([1]; Δjen1 MCT1, T4, time 27.5): 0.1778 and 0.1729 and 0.1762; growth curve reading, single replicate ([1]; Δjen1 MCT1, T5, time 43): 0.2083 and 0.2030 and 0.2026 and 0.2041; growth curve reading, single replicate ([1]; Δjen1 MCT1, T6, time 45.5): 0.2171 and 0.2098 and 0.2095 and 0.2126; growth curve reading, single replicate ([1]; Δjen1 MCT1, T7, time 48): 0.2154 and 0.2089 and 0.2128 and 0.2107; growth curve reading, mean of 4 replicates ([1]; Δjen1 MCT1, time 0): 0.0402; growth curve reading, mean of 4 replicates ([1]; Δjen1 MCT1, time 19): 0.1279; growth curve reading, mean of 4 replicates ([1]; Δjen1 MCT1, time 21): 0.1412; growth curve reading, mean of 4 replicates ([1]; Δjen1 MCT1, time 25): 0.1630; growth curve reading, mean of 4 replicates ([1]; Δjen1 MCT1, time 27.5): 0.1750; growth curve reading, mean of 4 replicates ([1]; Δjen1 MCT1, time 43): 0.2045; growth curve reading, mean of 4 replicates ([1]; Δjen1 MCT1, time 45.5): 0.2122; growth curve reading, mean of 4 replicates ([1]; Δjen1 MCT1, time 48): 0.2120; OD600 ([2]; Condition non, Replicate1, EV strain SAWy710, 10 µM AZD): 0.1411 and 0.1378 and 0.134 and 0.1369 and 0.1383 and 0.1317 and 0.135 and 0.1363 and 0.1403 and 0.1392 and 0.1365 and 0.1389 and 0.1394 and 0.149; OD600 ([2]; Condition non, Replicate2, EV strain SAWy710, 10 µM AZD): 0.1384 and 0.1406 and 0.1366 and 0.135 and 0.1021 and 0.1315 and 0.1407 and 0.1329 and 0.1336 and 0.1393 and 0.1343 and 0.134 and 0.138 and 0.1378 and 0.1431; OD600 ([2]; Condition perm, Replicate1, EV strain SAWy710, 10 µM AZD): 0.7718 and 0.7777 and 0.7776 and 0.7734 and 0.7269 and 0.7398 and 0.7671 and 0.7655 and 0.7645 and 0.774 and 0.768 and 0.7629 and 0.759 and 0.7698 and 0.7556 and 0.7591; OD600 ([2]; Condition perm, Replicate2, EV strain SAWy710, 10 µM AZD): 0.1774 and 0.1728 and 0.1654 and 0.1606 and 0.1374 and 0.1596 and 0.1712 and 0.1673 and 0.1713 and 0.168 and 0.1743 and 0.17 and 0.1727 and 0.1704 and 0.1842; tolerability in phase-1 clinical trial [3]: relatively well tolerated; IC50 ([4]; read-out: previously reported IC50 value): 5.12 nM; growth in media with lactate as the sole carbon source ([5]; MCT1 F360C, AZD3965 10 μM, 0.5% lactate (S5 Fig)): inhibited growth; growth curve reading, single replicate ([5]; T0, time 0): 0.0403; growth curve reading, single replicate ([5]; T1, time 19): 0.1093 and 0.1204 and 0.1196 and 0.1290; growth curve reading, single replicate ([5]; T2, time 21): 0.1288 and 0.1364 and 0.1335; growth curve reading, single replicate ([5]; T3, time 25): 0.1550 and 0.1804 and 0.1853 and 0.2001; growth curve reading, single replicate ([5]; T4, time 27.5): 0.1660 and 0.1913 and 0.2008 and 0.2152; growth curve reading, single replicate ([5]; T5, time 43): 0.1991 and 0.2285 and 0.2378 and 0.2578; growth curve reading, single replicate ([5]; T6, time 45.5): 0.2030 and 0.2318 and 0.2431 and 0.2629; growth curve reading, single replicate ([5]; T7, time 48): 0.2036 and 0.2334 and 0.2458 and 0.2644; growth curve reading, mean of 4 replicates ([5]; time 0): 0.0403; growth curve reading, mean of 4 replicates ([5]; time 19): 0.1196; growth curve reading, mean of 4 replicates ([5]; time 21): 0.1338; growth curve reading, mean of 4 replicates ([5]; time 25): 0.1802; growth curve reading, mean of 4 replicates ([5]; time 27.5): 0.1933; growth curve reading, mean of 4 replicates ([5]; time 43): 0.2308; growth curve reading, mean of 4 replicates ([5]; time 45.5): 0.2352; growth curve reading, mean of 4 replicates ([5]; time 48): 0.2368; growth curve reading, single replicate ([6]; T1, time 19): 0.1091 and 0.1160 and 0.1215 and 0.1310; growth curve reading, single replicate ([6]; T2, time 21): 0.1392 and 0.1432 and 0.1501; growth curve reading, single replicate ([6]; T3, time 25): 0.1257 and 0.1403 and 0.1504; growth curve reading, single replicate ([6]; T4, time 27.5): 0.1322 and 0.1452 and 0.1564 and 0.1709; growth curve reading, single replicate ([6]; T5, time 43): 0.1444 and 0.1533 and 0.1681 and 0.1884; growth curve reading, single replicate ([6]; T6, time 45.5): 0.1453 and 0.1535 and 0.1657 and 0.1862; growth curve reading, single replicate ([6]; T7, time 48): 0.1464 and 0.1540 and 0.1668 and 0.1877; growth curve reading, mean of 4 replicates ([6]; time 19): 0.1194; growth curve reading, mean of 4 replicates ([6]; time 21): 0.1435; growth curve reading, mean of 4 replicates ([6]; time 25): 0.1449; growth curve reading, mean of 4 replicates ([6]; time 27.5): 0.1512; growth curve reading, mean of 4 replicates ([6]; time 43): 0.1636; growth curve reading, mean of 4 replicates ([6]; time 45.5): 0.1627; growth curve reading, mean of 4 replicates ([6]; time 48): 0.1637

What does the source list for Cc1ccccc1-c1cc(N2CCN(C)CC2)ncc1N(C)C(=O)C(C)(C)c1cc(C(F)(F)F)cc(C(F)(F)F)c1 [Netupitant]?
OffScreen_percentage [7]: 103.271 percentage; Offscreen_18hr [7]: 0.8334; Offscreen_24hr [7]: 0.9137; Offscreen_42hr [7]: 0.9839; Read_percentage [7]: 103.271 percentage; Ki [8]: 0.95 nM; Ki [9]: 0.95 nM; viability at 10 µM [10]: 103%; Ki [11]: 0.95 nM

For CCOC(=O)Oc1c(OC)cc(C(=O)O[C@@H]2C[C@@H]3CN4CCc5c([nH]c6cc(OC)ccc56)[C@H]4C[C@@H]3[C@H](C(=O)OC)[C@H]2OC)cc1OC [Syrosingopine], which “in vitro cancer cell growth” value [12] is on record?
The value was “inhibit in vitro cancer cell growth”.

What about the IC50 [13] of the same compound?
The IC50 was 40 nM.

And the OffScreen_percentage [7]?
Its OffScreen_percentage is 92.2553 percentage.

And the Offscreen_18hr [7]?
Its Offscreen_18hr is 0.7445.

And the Offscreen_24hr [7]?
The Offscreen_24hr was 0.7958.

What about the Offscreen_42hr [7] of the same compound?
The Offscreen_42hr was 0.9268.

And the Read_percentage [7]?
Its Read_percentage is 92.2553.

What about the viability at 10 µM [10] of the same compound?
The viability at 10 µM was 92.3%.

And the IC50 ([4]; HAP1 cells, library annotation, read-out: IC50 MCT1)?
The IC50 was 2500 nM.

And the “tumor growth in in vivo cancer models” value ([14]; alone versus paired with metformin)?
The value was “only effective in reducing tumor growth when paired with the mitochondrial oxidative phosphorylation inhibitor metformin”.

And the “dose required to inhibit tumor growth in mice” value ([14]; mice)?
The value was 7.5 mg/kg.

And the IC50 [15]?
Its IC50 is 40 nM.

Which results are given for YM155?
OffScreen_percentage [7]: 103.73 percentage; Offscreen_18hr [7]: 0.8371; Offscreen_24hr [7]: 0.9154; Offscreen_42hr [7]: 0.9694; Read_percentage [7]: 103.73; IC50 [16]: 0.54 nM; IC50 [17]: 0.54 nM; IC50 [18]: 0.54 nM
